The values that follow come from article PMC13028883 (Pharmaceuticals, 2026).

The data set can be described thus: Pharmacokinetics of anthraquinones in plasma of cholestatic rats after oral DH, DH+MX or DHXSD. The data set is classed as in vivo, rat. Conditions: oral DH 1.2 g/kg, mean ± SD, n = 6.

Experimental: Cholestasis was established in rats through a single oral dose of ANIT (60 mg/kg in olive oil). […] Sequential blood samples were obtained at 5, 15, 30 min, and 1, 2, 4, 6, 8, 12, 24, and 36 h after administration. Plasma was separated by centrifugation and deproteinized by adding a 3:1 (v/v) ratio of acetonitrile containing 5 ng/mL IS1. Ultra-performance liquid chromatography–tandem mass spectrometry analysis was performed on the supernatants following a centrifugation, employing the described analytical approach [29].
Pharmacokinetic parameters were calculated using Drug And Statistics software (version 3.0). Intergroup comparisons were performed by one-way ANOVA followed by Tukey’s post hoc test for multiple comparisons. A p-value < 0.05 was considered statistically significant.

In turn, `O=C1c2cccc(O)c2C(=O)c2c(O)cc(CO)cc21` [Aloe emodin, aloe emodin] gave a t1/2 of 4.88 ± 0.97 h.
